Measured values as given in ChEMBL document CHEMBL1128775, “Specific affinity labeling of opioid receptors in rat brain by S-activated sulfhydryldihydromorphine analogs” (Bioorg Med Chem Lett, 1995).

What was measured:
Assay type in all cases: tissue-based
[1] = target: T1, Delta-type opioid receptor (Rattus norvegicus, UniProt P33533); test: Ability to displace [3H][D-Ser2,Leu5]enkephalin-Thr ([3H]DSLET) from Opioid receptor delta 1 in rat brain
[2] = target: T2, Mu-type opioid receptor (Rattus norvegicus, UniProt P33535); test: Ability to displace [3H][D-Ala2,MePhe4,Gly-ol5]enkephalin ([3H]DAGO) from mu opioid receptors in rat brain
[3] = target: T2, Mu-type opioid receptor; test: Compound was evaluated for its binding affinity to mu opioid receptors in rat brain
[4] = target: T1, Delta-type opioid receptor; test: Compound was evaluated for its binding affinity to Opioid receptor delta 1 in rat brain

T2 sequence (P33535 whole entry): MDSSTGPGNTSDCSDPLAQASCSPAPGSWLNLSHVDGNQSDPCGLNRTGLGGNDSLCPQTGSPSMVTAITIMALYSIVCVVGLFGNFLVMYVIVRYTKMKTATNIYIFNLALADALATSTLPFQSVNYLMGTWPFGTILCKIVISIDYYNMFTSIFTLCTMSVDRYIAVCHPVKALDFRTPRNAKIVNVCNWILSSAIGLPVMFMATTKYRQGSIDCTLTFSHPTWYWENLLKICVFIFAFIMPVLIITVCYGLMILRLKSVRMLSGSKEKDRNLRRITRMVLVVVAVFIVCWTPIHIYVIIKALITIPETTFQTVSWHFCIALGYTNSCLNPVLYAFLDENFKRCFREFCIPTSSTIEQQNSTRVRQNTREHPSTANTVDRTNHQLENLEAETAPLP
T1 sequence (P33533 whole entry): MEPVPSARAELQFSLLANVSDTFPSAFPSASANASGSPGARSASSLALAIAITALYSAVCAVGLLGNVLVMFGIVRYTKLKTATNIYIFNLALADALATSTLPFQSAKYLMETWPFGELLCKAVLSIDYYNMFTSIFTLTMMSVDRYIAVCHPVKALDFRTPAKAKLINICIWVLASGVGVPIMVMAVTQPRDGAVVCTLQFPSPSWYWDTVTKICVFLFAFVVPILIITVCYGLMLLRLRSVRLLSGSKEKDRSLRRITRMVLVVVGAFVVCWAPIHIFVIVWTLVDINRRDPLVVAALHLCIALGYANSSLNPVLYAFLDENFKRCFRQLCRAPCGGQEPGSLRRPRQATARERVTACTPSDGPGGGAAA

SMILES	IC50 [1] [nM]	IC50 [2] [nM]	EC50 [3] [nM]	EC50 [4] [nM]
CN1CC[C@]23c4c5ccc(O)c4O[C@H]2[C@@H](O)C[C@H](SSc2ccc([N+](=O)[O-])cn2)C3[C@H]1C5 (stereo partly drawn)	67.9	58.1	1700	1200
CN1CC[C@]23c4c5ccc(O)c4O[C@H]2[C@H](SSc2ccc([N+](=O)[O-])cn2)CCC3C1C5 (stereo partly drawn)	206	31.1	58.1	402
